Results on 9 compounds are retold here after ChEMBL document CHEMBL1201862, “PubChem BioAssay data set” (2004).

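Method: 48-hour compound exposure of cells in 96-well plates, five concentrations, linear interpolation of endpoints. Abbreviation: GI50, concentration required for 50% inhibition of growth.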 Activity calls are given as the source filed them. Rule as the data show it: active = GI50 up to about 1.1 µM and inactive = higher.

Among the test systems are CAKI-1; SK-MEL-28; EKVX; HCC 2998; SK-MEL-2; OVCAR-4; SK-OV-3; HL-60; SNB-19; SF-268; A549; ACHN; SNB-75; SW-620; KM12; NCI-H522; UACC-62; MOLT-4; OVCAR-3; OVCAR-8.
Holding throughout (assay): NCI anticancer screen, dose series, 48 h

As for `CC(C)(C)C(=O)N1C(C(=O)O)Cc2ccccc2[C@@H]1Cc1ccccc1` (stereo not given in full), the GI50 in the assay with CAKI-1, in the assay with SK-MEL-28, in the assay with EKVX, in the assay on HCC 2998, with SK-MEL-2 and in the assay on OVCAR-4 was > 100 µM (inactive) in each case. The GI50 in the assay on SK-OV-3, in the assay with HL-60, in the assay on SNB-19, with SF-268, with A549 and with ACHN was > 100 µM (inactive) each time. Moreover, the GI50 with SNB-75, with SW-620, in the assay with KM12, with NCI-H522, in the assay with UACC-62 and in the assay with MOLT-4 was > 100 µM (inactive) throughout. Also, the GI50 in the assay with OVCAR-3 and in the assay with OVCAR-8 was > 100 µM (inactive) each time.

Turning to `CC(C)OP(=O)(OC(C)C)/C(F)=N/Nc1ccc([N+](=O)[O-])cc1`, the GI50 in the assay with CAKI-1, in the assay with SK-MEL-28, in the assay with EKVX, with HCC 2998, with SK-MEL-2 and in the assay on OVCAR-4 was > 100 µM (inactive) throughout. Moreover, the GI50 in the assay with SK-OV-3, in the assay with HL-60, in the assay with SNB-19, with SF-268, in the assay with A549 and in the assay on ACHN was > 100 µM (inactive) throughout. In addition, the GI50 with SNB-75 was 38.7 µM (inactive); with SW-620, > 100 µM (inactive); with KM12 it was 91.2 µM (inactive); with NCI-H522, > 100 µM (inactive); in the assay on UACC-62, > 100 µM (inactive); in the assay on MOLT-4 it was > 100 µM (inactive). Besides, the GI50 with OVCAR-3 and in the assay on OVCAR-8 was > 100 µM (inactive) each time.

Turning to `O=c1oc2c(O)c(O)c(O)c3c(=O)oc4c(O)c(O)cc1c4c23` [FLAVELLAGIC ACID], the GI50 in the assay on CAKI-1 was > 100 µM (inactive); with SK-MEL-28, > 100 µM (inactive); in the assay with EKVX it was > 100 µM (inactive); in the assay with HCC 2998 it was > 100 µM (inactive); with SK-MEL-2 it was > 100 µM (inactive); with OVCAR-4, 16.2 µM (inactive). Also, the GI50 with SK-OV-3 is > 100 µM (inactive); in the assay with HL-60 it was 36.6 µM (inactive); with SNB-19, > 100 µM (inactive); with SF-268, > 100 µM (inactive); in the assay on A549, > 100 µM (inactive); in the assay with ACHN, 73.1 µM (inactive). The GI50 is 47.6 µM (inactive) in the assay on SNB-75; 97.7 µM (inactive) in the assay with SW-620; > 100 µM (inactive) with KM12; 46.1 µM (inactive) in the assay with NCI-H522; 57.3 µM (inactive) in the assay on UACC-62; 25.9 µM (inactive) in the assay with MOLT-4. Besides, the GI50 with OVCAR-3 was 61 µM (inactive); in the assay with OVCAR-8, 71.4 µM (inactive).

In the case of `COc1ccc(C[C@H]2COC(=O)[C@@H]2Cc2cccc(Br)c2)cc1OC`, the GI50 in the assay with CAKI-1 is 15.3 µM (inactive); with SK-MEL-28, 30.5 µM (inactive); in the assay on EKVX, 29.4 µM (inactive); in the assay with HCC 2998, 24.5 µM (inactive); in the assay with SK-MEL-2 it was 26 µM (inactive); in the assay on OVCAR-4, 10.4 µM (inactive). Further, the GI50 is 26.6 µM (inactive) in the assay with SK-OV-3; 12.2 µM (inactive) in the assay on HL-60; 52 µM (inactive) in the assay with SNB-19; 29.7 µM (inactive) with SF-268; 32.9 µM (inactive) in the assay with A549; 18.6 µM (inactive) in the assay with ACHN. The GI50 in the assay with SNB-75 is 8.99 µM (inactive); with SW-620, 22.5 µM (inactive); in the assay with KM12, 18.8 µM (inactive); with NCI-H522, 19.5 µM (inactive); in the assay on UACC-62 it was 25.6 µM (inactive); in the assay on MOLT-4, 8.75 µM (inactive). Moreover, the figures for the GI50 with OVCAR-3 and in the assay on OVCAR-8 were 20 µM (inactive) and 24.4 µM (inactive), respectively.

As for `O=C(Nc1nccs1)c1c(O)nc2sccn2c1=O`, the GI50 with CAKI-1, with SK-MEL-28, in the assay on EKVX, with HCC 2998, in the assay with SK-MEL-2 and with OVCAR-4 was > 10 µM (inactive) in each case. The GI50 in the assay with SK-OV-3, with HL-60, in the assay on SNB-19, in the assay with SF-268, in the assay on A549 and in the assay on ACHN was > 10 µM (inactive) throughout. Besides, the GI50 in the assay on SNB-75, in the assay with SW-620, in the assay on KM12, in the assay with NCI-H522, in the assay on UACC-62 and in the assay on MOLT-4 was > 10 µM (inactive) each time. Besides, the GI50 with OVCAR-3 and in the assay with OVCAR-8 was > 10 µM (inactive) in each case.

With `NC(CP(=O)(O)O)C(=O)O` (stereo not given), the GI50 with CAKI-1, in the assay on SK-MEL-28, with EKVX, in the assay on HCC 2998, in the assay with SK-MEL-2 and in the assay on OVCAR-4 was > 100 µM (inactive) each time. Further, the GI50 in the assay with SK-OV-3, in the assay on HL-60, in the assay on SNB-19, in the assay with SF-268, in the assay on A549 and in the assay on ACHN was > 100 µM (inactive) each time. Moreover, the GI50 in the assay with SNB-75, in the assay with SW-620, in the assay on KM12, in the assay on NCI-H522, with UACC-62 and in the assay with MOLT-4 was > 100 µM (inactive) in each case. Moreover, the GI50 in the assay with OVCAR-3 and in the assay on OVCAR-8 was > 100 µM (inactive) each time.

For `COc1oc(C2C/C(=C/C(C)=C/C(C)=C/C(C)=C/c3ccc([N+](=O)[O-])cc3)CO2)c(C)c(=O)c1C` (stereo not given), the GI50 is 12.5 µM (inactive) in the assay with CAKI-1; 6.1 µM (inactive) with SK-MEL-28; 2.58 µM (inactive) in the assay on EKVX; 22.4 µM (inactive) in the assay on HCC 2998; 23.9 µM (inactive) with SK-MEL-2; 3.5 µM (inactive) with OVCAR-4. The GI50 with SK-OV-3 was 12.9 µM (inactive); in the assay with HL-60, 1.68 µM (inactive); in the assay on SNB-19 it was 15.9 µM (inactive); in the assay with SF-268, 10.3 µM (inactive); in the assay on A549, 1.74 µM (inactive); with ACHN it was 1.12 µM (active). In addition, the GI50 with SNB-75 is 15.4 µM (inactive); with SW-620 it was 9.1 µM (inactive); in the assay with KM12, 1.58 µM (inactive); with NCI-H522, 0.344 µM (active); in the assay on UACC-62 it was 5 µM (inactive); in the assay with MOLT-4, 1.67 µM (inactive). For the same compound, the values for the GI50 with OVCAR-3 and with OVCAR-8 were 11.1 µM (inactive) and 1.52 µM (inactive), respectively.

`O=C(C1=C(C(=O)c2ccccc2)SC2(S1)C(C(=O)c1ccccc1)=C(C(=O)c1ccccc1)Sc1c2ssc1=O)c1ccccc1`: the GI50 in the assay on CAKI-1 was > 100 µM (inactive); in the assay with SK-MEL-28, > 100 µM (inactive); with EKVX it was > 100 µM (inactive); with HCC 2998, 55.8 µM (inactive); with SK-MEL-2, 99.1 µM (inactive); with OVCAR-4, 36.7 µM (inactive). For the same compound, the GI50 in the assay with SK-OV-3 was 49.3 µM (inactive); with HL-60 it was 11.2 µM (inactive); in the assay with SNB-19 it was 24.6 µM (inactive); in the assay with SF-268, 67.5 µM (inactive); in the assay on A549 it was 30.5 µM (inactive); with ACHN, 37.5 µM (inactive). Besides, the GI50 is 36.7 µM (inactive) in the assay with SNB-75; 22 µM (inactive) in the assay with SW-620; 29.8 µM (inactive) in the assay with KM12; 26.7 µM (inactive) in the assay with NCI-H522; 22.4 µM (inactive) with UACC-62; 1.11 µM (active) in the assay on MOLT-4. Besides, the GI50 is 67.6 µM (inactive) in the assay on OVCAR-3 and 44.5 µM (inactive) in the assay on OVCAR-8.

Regarding `CC1SC2=NC3=C(c4ccccc4C3=O)C(c3ccccc3Cl)N2C1=O` (stereo not given), the GI50 with CAKI-1 is > 100 µM (inactive); with SK-MEL-28, > 100 µM (inactive); with EKVX it was > 100 µM (inactive); in the assay on HCC 2998, > 100 µM (inactive); in the assay on SK-MEL-2 it was > 100 µM (inactive); with OVCAR-4 it was 86.1 µM (inactive). In addition, the GI50 with SK-OV-3, in the assay on HL-60, in the assay on SNB-19, in the assay on SF-268, in the assay on A549 and in the assay with ACHN was > 100 µM (inactive) in each case. The GI50 in the assay on SNB-75 is 63 µM (inactive); with SW-620 it was > 100 µM (inactive); in the assay on KM12, > 100 µM (inactive); with NCI-H522, 30.8 µM (inactive); with UACC-62 it was 80.2 µM (inactive); with MOLT-4, 75 µM (inactive). The GI50 in the assay on OVCAR-3 and in the assay with OVCAR-8 was > 100 µM (inactive) each time.
